# Test results taken from EP1762248A1, “Use of cobalt porphyrins in joint therapy with an immunosuppressant drug for treatment of transplant patients or autoimmune disorders” (CORIT Consorzio per la Ricerca sul, priority 2005, dated 2007).
# Where two headings read alike, the source gives them in different places.
# Columns and labels:
# PBMCs [1] = test: Proliferation of concanavalin A activated simian PBMCs by CFSE labelling; format: cell-based, primate; conditions: CoPP alone (CsA concentration 0), 96 hours (figure 2)
# Text: (§1) By means of staining with the DNA intercalator, PI, it has been possible to evaluate the apoptotic cells as a sub-diploid peak and the cells in the DNA synthesis and duplication stage (S+G2 stage) as peaks with a DNA content greater than or equal to the diploid content. The proliferation index of PBMCs has been evaluated by staining the cells with CFSE at the same time as stimulation.
# PBMCs [2] = test: Apoptosis analysis of simian PBMCs by PI staining (sub-diploid peak); format: cell-based, primate; conditions: CoPP alone; concanavalin A, 96 hours
# Procedure: The pellet from each sample has been resuspended in 600 µl of PBS and subsequently, 1.4 ml of absolute ethanol has been added dropwise while shaking continuously. The samples have been left at -20°C overnight. Following fixation, the cells have been washed twice in PBS. The pellet has been resuspended in 500 µl of PI at a concentration of 50 µg/ml, to which 6.25 µl of Nonidet P40 and 8 µl of RNase A (1 mg/ml) have been added. The samples have been shaken vigorously and incubated for at least half an hour in the dark at room temperature. Following incubation, the samples have been analysed using a cytofluorimeter, for cell cycle analysis.
# as §1
# In order to study apoptosis, the percentage of cells in the sub-diploid stage has been quantified.
# HO-1 = conditions: paec, 72 h
# Text: Equal amounts of protein of each sample have been loaded and separated by electrophoresis on a 12% polyacrylamide gel in the presence of SDS (SDS-PAGE) and then transferred onto a nitrocellulose membrane (Amersham-Pharmacia) by means of electroblotting. […] The specific band has been detected by adding a chemiluminescent substrate followed by exposure to photographic film (ECL-Amersham-Pharmacia). The relative amount of HO-1 protein, normalised to the actin content of each sample, has been determined with the use of a densitometer (Pharmacia).
# Following stimulation, HO-1 expression has been assessed by Western Blotting and densitometric analysis of the bands obtained. HO-1 expression is reported as the ratio of the intensity of the bands with respect to the control (table 1). The amount of protein loaded is normalised for actin.
# PAEC cells = test: Proliferation of PAEC cells by CFSE labelling and cytofluorometric analysis; format: cell-based, Pig; conditions: CoPP alone, various concentrations; versus untreated PAEC controls (figure 1)
# Text: Two in vitro experimental models have been used.
# CFSE is a non-fluorescent dye which diffuses passively into the cell cytoplasm. Once inside the cytoplasm, the dye is cleaved by intracellular esterases, thus becoming fluorescent. This binds strongly to cellular proteins and is retained during cellular development. At each cell division stage, CFSE is distributed evenly to daughter cells, with the result that each cellular generation will inherit half of the CFSE content. When analysed by cytofluorimetry, the sequential reduction of CFSE is visualised as distinct peaks corresponding to ever more decreasing fluorescence. PAEC proliferation has been evaluated as a proliferation index, calculated as the sum of the cells in all generations divided by the number of original parental cells (e.g. in the second generation, the parental cells would correspond to the total number of cells in the second generation divided by 2, in the third, divided by 4, because each will have given rise to 2^1, 2^2 cells and so on for each generation).
substance,measurement,setting,value
cobalt (III) protoporphyrin [CoPP],concentration at which PBMC proliferation is inhibited,PBMCs [1],> 25 µM
same,apoptosis (cells in the sub-diploid stage),PBMCs [2],up to 6%
same,HO-1 expression in PAECs as the ratio of band intensity with respect to the control and normalised for actin (R),HO-1; 50 µM,6.0
same,HO-1 expression in PAECs as the ratio of band intensity with respect to the control and normalised for actin (R),HO-1; 100 µM,4.6
same,proliferation index of PAECs,PAEC cells,increases the proliferation index in a dose dependent manner
